Laboratory results: ChEMBL document CHEMBL5647690, “Inhibition of demethylases by GSK-J1/J4” (Nature, 2014)

What was measured:
[1] = molecular target: T1, Lysine-specific demethylase 4B (Homo sapiens, UniProt O94953); assay: Inhibition of KDM4B (2 to 500 residues)(unknown origin) by Alphalisa assay
T1 sequence (O94953 whole entry): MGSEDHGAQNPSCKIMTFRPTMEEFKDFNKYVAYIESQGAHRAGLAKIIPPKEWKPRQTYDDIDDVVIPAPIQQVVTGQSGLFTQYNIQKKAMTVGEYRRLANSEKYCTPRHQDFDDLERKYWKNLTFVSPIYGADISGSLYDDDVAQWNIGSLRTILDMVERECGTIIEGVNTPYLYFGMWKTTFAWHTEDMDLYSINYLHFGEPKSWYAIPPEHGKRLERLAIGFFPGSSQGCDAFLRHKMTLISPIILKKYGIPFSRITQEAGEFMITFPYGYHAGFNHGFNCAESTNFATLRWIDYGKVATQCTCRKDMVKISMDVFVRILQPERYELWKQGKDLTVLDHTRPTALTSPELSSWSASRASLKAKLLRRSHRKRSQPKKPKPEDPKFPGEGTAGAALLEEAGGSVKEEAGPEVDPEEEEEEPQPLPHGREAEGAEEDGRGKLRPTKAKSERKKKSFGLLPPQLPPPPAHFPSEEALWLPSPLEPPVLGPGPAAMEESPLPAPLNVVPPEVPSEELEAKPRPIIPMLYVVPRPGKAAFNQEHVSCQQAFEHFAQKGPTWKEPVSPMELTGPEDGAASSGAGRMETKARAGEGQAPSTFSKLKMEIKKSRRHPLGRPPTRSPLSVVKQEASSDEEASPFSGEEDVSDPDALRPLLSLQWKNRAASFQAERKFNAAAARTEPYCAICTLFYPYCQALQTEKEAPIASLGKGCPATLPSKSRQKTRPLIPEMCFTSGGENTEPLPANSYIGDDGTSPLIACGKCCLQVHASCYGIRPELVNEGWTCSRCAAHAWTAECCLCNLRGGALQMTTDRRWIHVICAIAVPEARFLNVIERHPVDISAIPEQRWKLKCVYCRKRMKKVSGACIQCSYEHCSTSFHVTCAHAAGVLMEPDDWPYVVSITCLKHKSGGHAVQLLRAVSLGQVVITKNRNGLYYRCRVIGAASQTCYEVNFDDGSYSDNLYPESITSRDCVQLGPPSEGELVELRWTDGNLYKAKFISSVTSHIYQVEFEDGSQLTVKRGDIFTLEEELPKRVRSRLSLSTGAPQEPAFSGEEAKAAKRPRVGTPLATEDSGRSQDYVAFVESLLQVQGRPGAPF

[2] = Inhibition of epitope-tagged KDM5B (1 to 752 residues)(unknown origin) transfected in human U2OS cells using H3K4me2 peptide as substrate; assay type: cell-based
[3] = molecular target: Lysine-specific demethylase 3B (Homo sapiens, UniProt Q7LBC6); assay: Inhibition of KDM3B (842 to 1761 residues)(unknown origin) by Alphalisa assay
Chain of Lysine-specific demethylase 3B (Q7LBC6 whole entry, the tested form may be a part): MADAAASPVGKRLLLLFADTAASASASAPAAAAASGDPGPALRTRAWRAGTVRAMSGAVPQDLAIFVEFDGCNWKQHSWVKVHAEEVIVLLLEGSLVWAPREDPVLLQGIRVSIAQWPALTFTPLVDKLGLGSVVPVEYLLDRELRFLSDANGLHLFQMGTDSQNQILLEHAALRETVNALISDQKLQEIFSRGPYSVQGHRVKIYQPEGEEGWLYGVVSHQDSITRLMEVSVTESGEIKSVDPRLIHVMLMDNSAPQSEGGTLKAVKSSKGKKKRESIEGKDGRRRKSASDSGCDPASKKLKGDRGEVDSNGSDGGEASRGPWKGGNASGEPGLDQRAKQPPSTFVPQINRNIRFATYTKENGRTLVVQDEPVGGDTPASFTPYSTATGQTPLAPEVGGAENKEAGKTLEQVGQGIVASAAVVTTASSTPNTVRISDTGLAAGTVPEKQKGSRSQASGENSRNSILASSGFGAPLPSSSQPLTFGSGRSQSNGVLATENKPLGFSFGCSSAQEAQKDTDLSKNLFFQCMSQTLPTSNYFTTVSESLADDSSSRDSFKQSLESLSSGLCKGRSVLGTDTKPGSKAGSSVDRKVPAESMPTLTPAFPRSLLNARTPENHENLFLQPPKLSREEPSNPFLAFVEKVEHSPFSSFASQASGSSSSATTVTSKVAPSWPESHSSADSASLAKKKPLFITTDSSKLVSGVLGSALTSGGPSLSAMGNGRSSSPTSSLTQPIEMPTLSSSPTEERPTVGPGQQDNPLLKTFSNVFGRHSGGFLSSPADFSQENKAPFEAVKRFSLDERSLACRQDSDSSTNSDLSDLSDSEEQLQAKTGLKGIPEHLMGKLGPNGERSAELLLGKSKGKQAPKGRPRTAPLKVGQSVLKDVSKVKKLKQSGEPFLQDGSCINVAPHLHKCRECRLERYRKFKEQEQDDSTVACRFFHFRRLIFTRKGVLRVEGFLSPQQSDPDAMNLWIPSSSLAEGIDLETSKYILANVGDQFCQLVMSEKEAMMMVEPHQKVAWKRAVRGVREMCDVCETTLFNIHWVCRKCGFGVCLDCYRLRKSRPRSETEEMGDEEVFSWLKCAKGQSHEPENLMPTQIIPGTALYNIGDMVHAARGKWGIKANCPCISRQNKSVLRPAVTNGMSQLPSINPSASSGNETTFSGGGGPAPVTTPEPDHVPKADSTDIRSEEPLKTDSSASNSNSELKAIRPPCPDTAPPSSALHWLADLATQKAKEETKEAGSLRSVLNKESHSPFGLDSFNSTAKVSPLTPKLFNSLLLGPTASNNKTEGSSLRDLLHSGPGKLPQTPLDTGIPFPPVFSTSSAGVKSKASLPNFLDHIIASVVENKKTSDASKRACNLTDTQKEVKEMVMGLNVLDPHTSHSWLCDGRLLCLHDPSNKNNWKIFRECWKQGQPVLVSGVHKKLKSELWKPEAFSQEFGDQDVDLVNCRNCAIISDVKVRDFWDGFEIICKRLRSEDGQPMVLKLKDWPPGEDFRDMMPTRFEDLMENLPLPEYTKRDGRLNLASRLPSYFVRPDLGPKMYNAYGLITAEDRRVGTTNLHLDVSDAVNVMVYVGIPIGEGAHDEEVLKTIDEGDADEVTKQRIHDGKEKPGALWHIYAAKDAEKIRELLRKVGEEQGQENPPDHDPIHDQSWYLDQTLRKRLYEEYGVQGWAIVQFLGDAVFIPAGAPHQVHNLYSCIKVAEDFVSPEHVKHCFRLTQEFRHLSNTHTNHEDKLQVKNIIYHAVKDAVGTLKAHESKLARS

[4] = molecular target: T2, Lysine-specific demethylase 4A (Homo sapiens, UniProt O75164); assay: Inhibition of KDM4A (1 to 350 residues)(unknown origin) by Alphalisa assay
T2 sequence (O75164 whole entry): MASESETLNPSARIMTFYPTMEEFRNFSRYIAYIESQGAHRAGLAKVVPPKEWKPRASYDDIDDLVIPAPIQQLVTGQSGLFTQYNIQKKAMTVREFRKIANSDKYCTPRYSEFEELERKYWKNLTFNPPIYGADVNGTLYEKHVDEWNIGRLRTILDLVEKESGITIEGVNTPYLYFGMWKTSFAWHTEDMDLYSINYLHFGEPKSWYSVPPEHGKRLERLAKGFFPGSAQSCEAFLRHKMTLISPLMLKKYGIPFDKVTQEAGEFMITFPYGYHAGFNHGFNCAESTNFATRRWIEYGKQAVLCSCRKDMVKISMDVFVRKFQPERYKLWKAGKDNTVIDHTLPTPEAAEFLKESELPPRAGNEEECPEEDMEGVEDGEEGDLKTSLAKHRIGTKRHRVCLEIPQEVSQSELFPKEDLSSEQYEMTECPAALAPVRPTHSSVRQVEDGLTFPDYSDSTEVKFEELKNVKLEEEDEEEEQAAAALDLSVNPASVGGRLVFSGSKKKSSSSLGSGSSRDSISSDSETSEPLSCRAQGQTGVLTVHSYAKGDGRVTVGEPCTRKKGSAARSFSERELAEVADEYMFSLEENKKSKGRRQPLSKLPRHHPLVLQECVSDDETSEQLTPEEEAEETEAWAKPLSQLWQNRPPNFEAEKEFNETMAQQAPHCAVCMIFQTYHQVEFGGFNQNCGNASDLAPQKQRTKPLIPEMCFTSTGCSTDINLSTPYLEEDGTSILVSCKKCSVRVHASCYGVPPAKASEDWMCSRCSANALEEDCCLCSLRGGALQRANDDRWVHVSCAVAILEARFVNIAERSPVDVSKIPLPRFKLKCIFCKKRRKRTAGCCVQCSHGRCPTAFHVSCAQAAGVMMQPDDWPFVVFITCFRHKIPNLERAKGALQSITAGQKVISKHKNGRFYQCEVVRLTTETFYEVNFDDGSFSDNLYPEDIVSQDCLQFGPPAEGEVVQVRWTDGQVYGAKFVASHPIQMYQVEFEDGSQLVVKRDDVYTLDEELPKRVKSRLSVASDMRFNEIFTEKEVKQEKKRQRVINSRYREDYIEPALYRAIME

IC50 [1] [µM] | IC50 [2] [µM] | IC50 [3] [µM] | IC50 [4] [µM] | SMILES
3.8 | 3.1 | 6.9 | 7.5 | CCOC(=O)CCNc1cc(N2CCc3ccccc3CC2)nc(-c2ccccn2)n1
73 | – | > 75 | > 50 | O=C(O)CCNc1cc(N2CCc3ccccc3CC2)nc(-c2ccccn2)n1
